Measured values from BigSolDB 2.1.

CC[C@H](C)C(=O)O[C@H]1C[C@H](O)C=C2C=C[C@H](C)[C@H](CC[C@@H](O)C[C@@H](O)CC(=O)[O-])[C@H]21.[Na+]
solubility (mole fraction) (in ethanol, 278 K): 0.0031 | solubility (mole fraction) (in ethanol, 283 K): 0.00325 | solubility (mole fraction) (in ethanol, 288 K): 0.00346 | solubility (mole fraction) (in ethanol, 293 K): 0.00366 | solubility (mole fraction) (in ethanol, 298 K): 0.00406 | solubility (mole fraction) (in ethanol, 303 K): 0.00429 | solubility (mole fraction) (in ethanol, 318 K): 0.00569 | solubility (mole fraction) (in ethanol, 323 K): 0.00692 | solubility (mole fraction) (in ethanol, 328 K): 0.00793 | solubility (mole fraction) (in ethanol, 333 K): 0.00942 | solubility (mole fraction) (in isopropanol, 278 K): 0.000605 | solubility (mole fraction) (in isopropanol, 283 K): 0.000684 | solubility (mole fraction) (in isopropanol, 288 K): 0.000753 | solubility (mole fraction) (in isopropanol, 293 K): 0.000818 | solubility (mole fraction) (in isopropanol, 298 K): 0.000903 | solubility (mole fraction) (in isopropanol, 303 K): 0.00103 | solubility (mole fraction) (in isopropanol, 308 K): 0.0011 | solubility (mole fraction) (in isopropanol, 318 K): 0.00141 | solubility (mole fraction) (in isopropanol, 322.9 K): 0.00164 | solubility (mole fraction) (in isopropanol, 327.9 K): 0.0019 | solubility (mole fraction) (in methanol, 277.8 K): 0.0225 | solubility (mole fraction) (in methanol, 283 K): 0.0245 | solubility (mole fraction) (in methanol, 287.9 K): 0.027 | solubility (mole fraction) (in methanol, 293 K): 0.0301 | solubility (mole fraction) (in methanol, 297.8 K): 0.0326 | solubility (mole fraction) (in methanol, 302.9 K): 0.0373 | solubility (mole fraction) (in methanol, 308 K): 0.0418 | solubility (mole fraction) (in methanol, 313 K): 0.0492 | solubility (mole fraction) (in methanol, 318 K): 0.0588 | solubility (mole fraction) (in methanol, 324 K): 0.0687 | solubility (mole fraction) (in n-butanol, 278.1 K): 0.00108 | solubility (mole fraction) (in n-butanol, 283 K): 0.00118 | solubility (mole fraction) (in n-butanol, 288 K): 0.00127 | solubility (mole fraction) (in n-butanol, 293 K): 0.00144 | solubility (mole fraction) (in n-butanol, 298 K): 0.00159 | solubility (mole fraction) (in n-butanol, 303 K): 0.00178 | solubility (mole fraction) (in n-butanol, 308 K): 0.00223 | solubility (mole fraction) (in n-butanol, 313 K): 0.0029 | solubility (mole fraction) (in n-butanol, 318.2 K): 0.00345 | solubility (mole fraction) (in n-butanol, 323 K): 0.00408 | solubility (mole fraction) (in n-butanol, 328 K): 0.00493 | solubility (mole fraction) (in n-propanol, 278 K): 0.00208 | solubility (mole fraction) (in n-propanol, 283 K): 0.00216 | solubility (mole fraction) (in n-propanol, 288 K): 0.00219 | solubility (mole fraction) (in n-propanol, 293 K): 0.00227 | solubility (mole fraction) (in n-propanol, 298 K): 0.00238 | solubility (mole fraction) (in n-propanol, 308 K): 0.00343 | solubility (mole fraction) (in n-propanol, 313 K): 0.00449 | solubility (mole fraction) (in n-propanol, 318 K): 0.0062 | solubility (mole fraction) (in n-propanol, 328 K): 0.0122 | solubility (mole fraction) (in n-propanol, 333 K): 0.0158 | solubility (mole fraction) (in water, 278.4 K): 0.00911 | solubility (mole fraction) (in water, 283 K): 0.0119 | solubility (mole fraction) (in water, 288 K): 0.0162 | solubility (mole fraction) (in water, 293 K): 0.0216 | solubility (mole fraction) (in water, 298 K): 0.0285 | solubility (mole fraction) (in water, 303 K): 0.0343 | solubility (mole fraction) (in water, 313 K): 0.0477 | solubility (mole fraction) (in water, 318 K): 0.0553 | solubility (mole fraction) (in water, 323 K): 0.0642 | solubility (mole fraction) (in water, 328 K): 0.0723 | solubility (mole fraction) (in water, 333 K): 0.0841
